Test results reported in patent US7229762B2, “Proteomic screening for redox state dependent protein—protein interactions” (Duke University Medical Center, priority 2003, dated 2007).

System: caspase-3 interactions with ASM, IRG, PGM, iNOS
Description: For this purpose, protein-protein interactions were determined in a yeast two-hybrid system by the method described in Uetz, P., et al., Nature 403, 623–627 (2000) and Ito, T., et al., PNAS, 97, 1143–1147 (2000). The baits were all known proteins involved in apoptotic cascades. The preys were a library of macrophage genes (mRNA) expressed in response to cytokines that induce apoptosis. Mating pairs or transfectants were exposed to continuous nitric oxide presence at levels and flux rates mimicking those which are generated in macrophages, over 18 hours (the time course, over which apoptosis occurs in these cells). Room air was used in the determinations to mimic the cell condition at first and subsequently low pO2 (about 5 mm Hg) was used to improve specificity and increase yield. New partners and/or inhibition of partners that were otherwise present, were sought.

OO [hydrogen peroxide]
effect of presence of hydrogen peroxide on determined interactions: did not produce or modify the majority of determined interactions
interaction dependent on hydrogen peroxide in the 4 clones (added repeatedly or generated continuously with glucose oxidase): none was found
